Structures can show the parent of a compound that is named as a salt.
Target: T1, ΔF508-CFTR (Homo sapiens, UniProt P13569, DEL508-508)
T1 construct: primary lung epithelial cells (hBEs) homozygous for the Cystic Fibrosis-causing ΔF508 mutation; endogenous in cells; host or cells: primary lung epithelial cells (hBEs) homozygous for ΔF508
Experiment: hBE equivalent current (Ieq) assay, primary lung epithelial cells homozygous for ΔF508
Type: cell-based
Details: 24 h treatment; for leq: activity of compound with VX-809, % of VX-809 (AUC of equivalent chloride current): compound at 10 uM and VX-809 at 1 uM, relative to VX-809 (1 uM); for leq: activity relative to VX-809 (AUC of equivalent chloride current): compound alone run at 10 uM, relative to VX-809 at 1 uM
Description: Primary lung epithelial cells homozygous for the Cystic Fibrosis-causing ΔF508 mutation were differentiated for a minimum of 4 weeks in an air-liquid interface on Costar 24 well HTS filter plates prior to the equivalent current (Ieq) measurements. Cells were apically mucus-washed for 30 minutes 24h prior to treatment with compounds. The basolateral media was removed and replaced with media containing the compound of interest diluted to its final concentration from DMSO stocks. Treated cells were incubated at 37° C. and 5% CO2 for 24 hours. At the end of the treatment period, the media was changed to the Ieq experimental solution for 30 minutes before the experiment and plates are maintained in a CO2-free incubator during this period. The plates containing the cells were then placed in pre-warmed heating blocks at 36° C.±0.5 for 15 minutes before measurements are taken. The transepithelial voltage (VT) and conductance (GT) were measured using a custom 24 channel current clamp (TECC-24) with 24 well electrode manifold. The Ieq assay measurements were made following additions with standardized time periods: • 1. The baseline VT and GT values were measured for approximately 20 minutes. • 2. Benzamil was added to block ENaC for 15 minutes. • 3. Forskolin plus VX-770 (ivacaftor) were added to maximally activate ΔF508-CFTR for 27 minutes. • 4. Bumetanide was added to inhibit the NaK2Cl cotransporter and shut-off secretion of chloride.
The activity data captured was the area under the curve (AUC) for the traces of the equivalent chloride current. The AUC was collected from the time of the forskolin/VX-770 addition until the inhibition by bumetanide addition. Correction in response to compound treatment was scored as the increase in the AUC for compound-treated samples over that of vehicle-treated samples.
The results are shown below in Table 2. ++ indicates activity ≥25% run at 10 uM of VX-809 at 1 uM, + indicates activity 10 to <25% run at 10 uM of VX-809 at 1 uM, ** indicates activity ≥200% of VX-809 (1 uM) with compound at 10 uM and VX-809 at 1 uM; * indicates activity 100-200% of VX-809 (1 uM) with compound at 10 uM and VX-809 at 1 uM. ^## indicates activity ≥200% of VX-809 (3 uM) with compound at 10 uM and VX-809 at 3 uM; ^# indicates activity 100-200% of VX-809 (3 uM) with compound at 10 uM and VX-809 at 3 uM.

T1 sequence (P13569 with tags, fused parts or gaps DEL508-508): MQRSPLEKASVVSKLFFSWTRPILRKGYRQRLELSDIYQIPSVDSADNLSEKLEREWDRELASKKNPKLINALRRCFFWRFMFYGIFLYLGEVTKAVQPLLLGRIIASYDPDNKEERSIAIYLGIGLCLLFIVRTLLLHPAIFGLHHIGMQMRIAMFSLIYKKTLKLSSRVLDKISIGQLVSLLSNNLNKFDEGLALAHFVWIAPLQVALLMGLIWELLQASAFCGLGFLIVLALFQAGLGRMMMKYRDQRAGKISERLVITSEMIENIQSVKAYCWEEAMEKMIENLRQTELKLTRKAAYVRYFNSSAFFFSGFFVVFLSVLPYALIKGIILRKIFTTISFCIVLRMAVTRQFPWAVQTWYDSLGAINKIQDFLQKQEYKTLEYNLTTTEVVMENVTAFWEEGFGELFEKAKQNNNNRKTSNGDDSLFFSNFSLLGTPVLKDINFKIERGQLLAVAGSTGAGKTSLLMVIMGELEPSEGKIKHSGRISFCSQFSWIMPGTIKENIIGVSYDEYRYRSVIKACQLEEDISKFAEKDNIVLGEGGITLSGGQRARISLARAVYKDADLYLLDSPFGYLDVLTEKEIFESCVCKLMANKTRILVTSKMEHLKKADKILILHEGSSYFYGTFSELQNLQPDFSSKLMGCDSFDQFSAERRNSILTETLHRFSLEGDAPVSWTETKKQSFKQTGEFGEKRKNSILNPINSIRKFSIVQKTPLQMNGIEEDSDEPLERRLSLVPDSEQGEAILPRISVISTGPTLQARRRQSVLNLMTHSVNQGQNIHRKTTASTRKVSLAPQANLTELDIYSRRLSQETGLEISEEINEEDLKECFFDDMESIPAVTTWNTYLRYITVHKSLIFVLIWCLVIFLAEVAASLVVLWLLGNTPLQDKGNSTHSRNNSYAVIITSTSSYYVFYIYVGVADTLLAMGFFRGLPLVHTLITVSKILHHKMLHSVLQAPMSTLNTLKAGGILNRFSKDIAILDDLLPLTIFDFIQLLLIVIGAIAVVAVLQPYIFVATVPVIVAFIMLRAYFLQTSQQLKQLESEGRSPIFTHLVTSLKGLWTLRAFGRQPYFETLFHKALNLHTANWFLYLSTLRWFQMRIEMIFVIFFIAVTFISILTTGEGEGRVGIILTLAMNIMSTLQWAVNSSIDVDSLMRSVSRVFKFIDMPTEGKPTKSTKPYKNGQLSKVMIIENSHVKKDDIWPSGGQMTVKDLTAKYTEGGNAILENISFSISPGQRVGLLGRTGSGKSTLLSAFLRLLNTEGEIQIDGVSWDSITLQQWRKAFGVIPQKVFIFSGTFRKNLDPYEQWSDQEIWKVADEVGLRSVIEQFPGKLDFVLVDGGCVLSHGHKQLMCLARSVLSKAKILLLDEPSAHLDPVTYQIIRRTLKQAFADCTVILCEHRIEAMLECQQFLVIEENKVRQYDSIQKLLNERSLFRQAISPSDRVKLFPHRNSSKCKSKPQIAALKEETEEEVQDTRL

| SMILES | leq: activity of compound with VX-809, % of VX-809 (AUC of equivalent chloride current) | leq: activity relative to VX-809 (AUC of equivalent chloride current) |
| --- | --- | --- |
| CC(OC1CCC1)c1nnc([C@H]2C[C@H](NC(=O)c3cc(-c4ccccc4)no3)C2)o1 (relative stereo) [Example 17, N-(trans-3-(5-(1-cyclobutoxyethyl)-1,3,4-oxadiazol-2-yl)cyclobutyl)-3-phenylisoxazole-5-carboxamide] | * (* indicates activity 100-200% of VX-809 (1 uM) with compound at 10 uM and VX-809 at 1 uM) |  |
| CC(OCC(F)(F)F)c1nnc(C2CC(NC(=O)c3cc(-c4ccccc4)no3)C2)o1 (single isomer, unassigned) [Example 15] | * (* indicates activity 100-200% of VX-809 (1 uM) with compound at 10 uM and VX-809 at 1 uM) |  |
| COCCNC(=O)c1cc(-c2ccccc2)no1 [Example 1, N-(2-methoxyethyl)-3-phenylisoxazole-5-carboxamide] |  | ++ (++ indicates activity ≥25% run at 10 uM of VX-809 at 1 uM) |
| O=C(NCC1CCCO1)c1cc(-c2ccccc2)no1 (centres unmarked) [Example 2, 3-phenyl-N-((tetrahydrofuran-2-yl)methyl)isoxazole-5-carboxamide] |  | ++ (++ indicates activity ≥25% run at 10 uM of VX-809 at 1 uM) |
| O=C(NCCN1CCOCC1)c1cc(-c2ccccc2)no1 [Example 3, N-(2-morpholinoethyl)-3-phenylisoxazole-5-carboxamide] |  | ++ (++ indicates activity ≥25% run at 10 uM of VX-809 at 1 uM) |
| O=C(NCCCn1ccnc1)c1cc(-c2ccccc2)no1 [Example 4, N-(3-(1H-imidazol-1-yl)propyl)-3-phenylisoxazole-5-carboxamide] |  | + (+ indicates activity 10 to <25% run at 10 uM of VX-809 at 1 uM) |
| Cn1nccc1CCCNC(=O)c1cc(-c2ccccc2)no1 [Example 7, N-(3-(1-methyl-1H-pyrazol-5-yl)propyl)-3-phenylisoxazole-5-carboxamide] | * (* indicates activity 100-200% of VX-809 (1 uM) with compound at 10 uM and VX-809 at 1 uM) | ++ (++ indicates activity ≥25% run at 10 uM of VX-809 at 1 uM) |
| COCCNC(=O)c1cc(-c2ccccc2)co1 [Example 8, N-(2-methoxyethyl)-4-phenylfuran-2-carboxamide] |  | + (+ indicates activity 10 to <25% run at 10 uM of VX-809 at 1 uM) |
| O=C(NCC1CCCO1)c1cc(-c2ccccc2)co1 (centres unmarked) [Example 9, 4-phenyl-N-((tetrahydrofuran-2-yl)methyl)furan-2-carboxamide] |  | ++ (++ indicates activity ≥25% run at 10 uM of VX-809 at 1 uM) |
| O=C(NCCN1CCOCC1)c1cc(-c2ccccc2)co1 [Example 10, N-(2-morpholinoethyl)-4-phenylfuran-2-carboxamide] |  | + (+ indicates activity 10 to <25% run at 10 uM of VX-809 at 1 uM) |
| O=C(NCCCn1ccnc1)c1cc(-c2ccccc2)co1 [Example 11, N-(3-(1H-imidazol-1-yl)propyl)-4-phenylfuran-2-carboxamide] |  | ++ (++ indicates activity ≥25% run at 10 uM of VX-809 at 1 uM) |
| O=C(NC1CC1)c1cc(-c2ccccc2)co1 [Example 12, N-cyclopropyl-4-phenylfuran-2-carboxamide] | * (* indicates activity 100-200% of VX-809 (1 uM) with compound at 10 uM and VX-809 at 1 uM) | ++ (++ indicates activity ≥25% run at 10 uM of VX-809 at 1 uM) |
| CO[C@H](C)c1nnc([C@H]2C[C@H](NC(=O)c3cc(-c4ccccc4)no3)C2)o1 [Example 14, N-(trans-3-(5-((R)-1-methoxyethyl)-1,3,4-oxadiazol-2-yl)cyclobutyl)-3-phenylisoxazole-5-carboxamide] | * (* indicates activity 100-200% of VX-809 (1 uM) with compound at 10 uM and VX-809 at 1 uM) |  |
| C[C@@H](OCC1CN(C)C1)c1nnc([C@H]2C[C@H](NC(=O)c3cc(-c4ccccc4)no3)C2)o1 [Example 20, N-(trans-3-(5-((R)-1-((1-methylazetidin-3-yl)methoxy)ethyl)-1,3,4-oxadiazol-2-yl)cyclobutyl)-3-phenylisoxazole-5-carboxamide] | * (* indicates activity 100-200% of VX-809 (1 uM) with compound at 10 uM and VX-809 at 1 uM) |  |
| CN1CC(c2nnc([C@H]3C[C@H](NC(=O)c4cc(-c5ccccc5)no4)C3)o2)C1 [Example 21, N-(trans-3-(5-(1-methylazetidin-3-yl)-1,3,4-oxadiazol-2-yl)cyclobutyl)-3-phenylisoxazole-5-carboxamide trifluoroacetate] | * (* indicates activity 100-200% of VX-809 (1 uM) with compound at 10 uM and VX-809 at 1 uM) |  |
| O=C(NC1CC(c2nnc(C3COC3)o2)C1)c1cc(-c2ccccc2)no1 (stereo not drawn) [Example 22, N-trans-3-(5-(oxetan-3-yl)-1,3,4-oxadiazol-2-yl)cyclobutyl)-3-phenylisoxazole-5-carboxamide] | * (* indicates activity 100-200% of VX-809 (1 uM) with compound at 10 uM and VX-809 at 1 uM) |  |
| O=C(N[C@H]1C[C@H](c2nnc(C3CS(=O)(=O)C3)o2)C1)c1cc(-c2ccccc2)no1 [Example 23, N-(trans-3-(5-(1,1-dioxidothietan-3-yl)-1,3,4-oxadiazol-2-yl)cyclobutyl)-3-phenylisoxazole-5-carboxamide] | * (* indicates activity 100-200% of VX-809 (1 uM) with compound at 10 uM and VX-809 at 1 uM) |  |
| CN1CCC(N2CC(c3nnc(C4CC(NC(=O)c5cc(-c6ccccc6)no5)C4)o3)C2)CC1 (stereo not drawn) [Example 24, N-cis-(3-(5-(1-(1-methylpiperidin-4-yl)azetidin-3-yl)-1,3,4-oxadiazol-2-yl)cyclobutyl)-3-phenylisoxazole-5-carboxamide] | * (* indicates activity 100-200% of VX-809 (1 uM) with compound at 10 uM and VX-809 at 1 uM) |  |
| O=C(N[C@H]1C[C@H](c2nnc(C3CN(CC4CCC4)C3)o2)C1)c1cc(-c2ccccc2)no1 [Example 27, N-(trans-3-(5-(1-(cyclobutylmethyl)azetidin-3-yl)-1,3,4-oxadiazol-2-yl)cyclobutyl)-3-phenylisoxazole-5-carboxamide] | * (* indicates activity 100-200% of VX-809 (1 uM) with compound at 10 uM and VX-809 at 1 uM) |  |
| O=C(N[C@H]1C[C@@H](n2nncc2CO)C1)c1cc(-c2ccccc2)no1 [Example 28, N-(cis-3-(5-(hydroxymethyl)-1H-1,2,3-triazol-1-yl)cyclobutyl)-3-phenylisoxazole-5-carboxamide] | ** (** indicates activity ≥200% of VX-809 (1 uM) with compound at 10 uM and VX-809 at 1 uM) |  |
| O=C(N[C@H]1C[C@@H](n2cc(CO)nn2)C1)c1cc(-c2ccccc2)no1 [Example 29, N-(cis-3-(4-(hydroxymethyl)-1H-1,2,3-triazol-1-yl)cyclobutyl)-3-phenylisoxazole-5-carboxamide] | ** (** indicates activity ≥200% of VX-809 (1 uM) with compound at 10 uM and VX-809 at 1 uM) |  |
| C[C@@H](O)c1nnc([C@H]2C[C@H](NC(=O)c3cc(-c4ccc(F)cc4)no3)C2)o1 [Example 36, 3-(4-fluorophenyl)-N-(trans-3-(5-((R)-1-hydroxyethyl)-1,3,4-oxadiazol-2-yl)cyclobutyl)isoxazole-5-carboxamide] | * (* indicates activity 100-200% of VX-809 (1 uM) with compound at 10 uM and VX-809 at 1 uM) |  |
| C[C@@H](O)c1nnc(CC2CC(NC(=O)c3cc(-c4ccccc4)no3)C2)o1 (stereo partly drawn) [Example 37, N-((1S,3s)-3-((5-((R)-1-hydroxyethyl)-1,3,4-oxadiazol-2-yl)methyl)cyclobutyl)-3-phenylisoxazole-5-carboxamide] | ** (** indicates activity ≥200% of VX-809 (1 uM) with compound at 10 uM and VX-809 at 1 uM) |  |
| C[C@@H](O)c1nnc(CC2CC(NC(=O)c3cc(-c4ccc(F)cc4)no3)C2)o1 (stereo partly drawn) [Example 40, 3-(4-Fluorophenyl)-N-[(1r,3r)-3-([5-[(1R)-1-hydroxyethyl]-1,3,4-oxadiazol-2-yl]methyl)cyclobutyl]-1,2-oxazole-5-carboxamide] | ** (** indicates activity ≥200% of VX-809 (1 uM) with compound at 10 uM and VX-809 at 1 uM) |  |

Reference: patent publication US11083709B2, “Compounds, compositions, and methods of increasing CFTR activity” (Proteostasis Therapeutics, Inc., priority 2015, dated 2021)
